Source: patent US20240398757A1 (COCRYSTAL PHARMA, INC., priority 2022, published 2024)

molecular target: T1, SARS2 protease (Severe acute respiratory syndrome coronavirus 2, UniProt P0DTD1); assay: SARS-CoV-2 protease inhibition assay (SARS2 FRET protease assay); format: biochemical; conditions: IC50 (μM), SARS2 protease 30 nM, peptide substrate 1.3 μM, 120 minutes at 37° C., compounds 20 μM to 0.075 nM
T1 construct: SARS2 protease was added to a final concentration of 30 nM

Row | Compound | IC50 [nM]
1 | CCCC[C@H](NC(=O)OC(c1cnn(C)c1)C(F)(F)c1cccc(Cl)c1)C(=O)N[C@@H](C[C@@H]1CCNC1=O)C(=O)C(=O)NCC (stereo partly shown) [Compound A319] | 1
2 | CCCC[C@H](NC(=O)O[C@@H](c1ccccc1)C(C)(C)c1cccc(F)c1)C(=O)N[C@@H](C[C@@H]1CCNC1=O)C(=O)C(=O)NCC [Compound A215] | 1010
3 | CC(C)C[C@H](NC(=O)O[C@H](c1ccccc1)C(F)(F)c1cccc(C(C)C)c1)C(=O)N[C@@H](C[C@@H]1CCNC1=O)C(=O)C(=O)NC1CC1 [Compound A194] | 5
4 | CC(C)C[C@H](NC(=O)OC(c1ccccc1)C(F)(F)c1cccc(F)c1)C(=O)N[C@@H](C[C@@H]1CCNC1=O)C(=O)C(=O)NC1CC1 (stereo partly shown) [Compound A10] | 5
5 | CCCC[C@H](NC(=O)O[C@H](c1ccccc1)C(F)(F)c1cccc(Cl)c1)C(=O)N[C@H](C=O)C[C@@H]1CCCNC1=O [Compound A146] | 38
6 | CCNC(=O)C(=O)[C@H](C[C@@H]1CCNC1=O)NC(=O)[C@H](CC1CCCCC1)NC(=O)O[C@@H](c1ccccc1)C(F)(F)c1cccc(Cl)c1 [Compound A120] | < 0.01
7 | CCNC(=O)C(=O)[C@H](C[C@@H]1CCNC1=O)NC(=O)[C@H](CC1(C)CCC1)NC(=O)O[C@@H](c1ccccc1)C(F)(F)c1cccc(Cl)c1 [Compound A327] | 5330
8 | CCCC[C@H](NC(=O)OC(c1ccccc1)C(F)(F)c1cccc(Cl)c1)C(=O)N[C@@H](C[C@@H]1CCNC1=O)C(=O)C(=O)NCCNCC (stereo partly shown) [Compound A294] | 486
9 | CC(C)C[C@H](NC(=O)OC(c1ccccc1)C(F)(F)c1cccc(-c2ccccc2)c1)C(=O)N[C@@H](C[C@@H]1CCNC1=O)C(=O)C(=O)NC1CC1 (stereo partly shown) [Compound A191] | 6
10 | O=C[C@H](C[C@@H]1CCNC1=O)NC(=O)[C@H](CC1CC1)NC(=O)O[C@H](c1ccccc1)C(F)(F)c1cccc(Cl)c1 [Compound A157] | 0.2
11 | CC(C)C[C@H](NC(=O)OC(c1ccc(Cl)cc1)C1(c2cccc(Cl)c2)CCN(C(=O)OC(C)(C)C)CC1)C(=O)N[C@@H](C[C@@H]1CCNC1=O)C(=O)C(=O)NC1CC1 (stereo partly shown) [Compound A88] | 630
12 | CC[C@@H](C)C[C@H](NC(=O)O[C@H](c1ccccc1)C(F)(F)c1cccc(Cl)c1)C(=O)N[C@@H](C[C@@H]1CCNC1=O)C(=O)C(=O)NC1CC1 [Compound A311] | 181
13 | CC(C)(c1cccc(Cl)c1)C(OC(=O)N[C@@H](Cc1ccc(Cl)c(Cl)c1)C(=O)N[C@H](C=O)C[C@@H]1CCNC1=O)c1ccccc1 (stereo partly drawn) [Compound A279, 2-(3-chlorophenyl)-2-methyl-1-phenylpropyl ((S)-3-(3,4-dichlorophenyl)-1-oxo-1-(((S)-1-oxo-3-((S)-2-oxopyrrolidin-3-yl)propan-2-yl)amino)propan-2-yl)carbamate] | 423
14 | O=C[C@H](C[C@@H]1CCNC1=O)NC(=O)[C@H](Cc1ccccc1)NC(=O)OC(C1CCCCC1)C(F)(F)c1cccc(Cl)c1 (stereo partly shown) [Compound A254] | 2
15 | CCCC[C@H](NC(=O)O[C@H](c1ccccc1)C(F)(F)c1cccc(Cl)c1)C(=O)N[C@@H](C[C@@H]1CCNC1=O)C(OC(=O)CC)S(=O)(=O)O (stereo partly shown) [Compound A214] | 1860
16 | CC(C)C[C@H](NC(=O)OC(C(C)C)C(F)(F)c1cccc(C2CC2)c1)C(=O)N[C@H](C=O)C[C@@H]1CCNC1=O (stereo partly shown) [Compound A198] | 6

Row | Compound | IC50 [nM]
17 | CCCC(=O)OC([C@H](C[C@@H]1CCNC1=O)NC(=O)[C@H](CC1CCCCC1)NC(=O)OC(c1ccccc1)C(F)(F)c1cccc(Cl)c1)S(=O)(=O)O (stereo partly shown) [Compound A113] | 241
18 | CC(C)C[C@H](NC(=O)OC(c1cccc(Cl)c1)C1(c2cccc(Cl)c2)CCN(C(=O)OC(C)(C)C)CC1)C(=O)N[C@H](C=O)C[C@@H]1CCNC1=O (stereo partly shown) [Compound A86] | 370
19 | CCCC[C@H](NC(=O)OC(c1ccccc1)C(F)(F)c1cccc(Cl)c1)C(=O)N[C@@H](C[C@@H]1CCNC1=O)C(=O)C(=O)NC1CC1 (stereo partly shown) [Compound A51] | 130
20 | CCNC(=O)C(=O)[C@H](C[C@@H]1CCNC1=O)NC(=O)[C@H](Cc1ccccc1)NC(=O)OC(c1ccccc1)C(F)(F)c1cccc(Cl)c1 (stereo partly drawn) [Compound A240, 2-(3-chlorophenyl)-2,2-difluoro-1-phenylethyl ((S)-1-(((S)-4-(ethylamino)-3,4-dioxo-1-((S)-2-oxopyrrolidin-3-yl)butan-2-yl)amino)-1-oxo-3-phenylpropan-2-yl)carbamate] | 638
21 | CCCC[C@H](NC(=O)O[C@H](c1ccc(F)cc1)C(F)(F)c1cccc(Cl)c1)C(=O)N[C@@H](C[C@@H]1CCNC1=O)C(=O)C(=O)NC1CC1 [Compound A200] | 0.4
22 | CC(C)C[C@H](NC(=O)O[C@H](c1cccc(Cl)c1)C(C)(C)c1cccc(Cl)c1)C(=O)N[C@@H](C[C@@H]1CCNC1=O)C(=O)C(=O)NC1CC1 [Compound A147] | 558
23 | CCCC[C@H](NC(=O)OC(c1ccccc1)C(F)(F)c1cccc(Cl)c1)C(=O)N[C@H](C=O)CC1CC(C)NC1=O (stereo partly shown) [Compound A112] | 179
24 | O=C[C@H](C[C@@H]1CCNC1=O)NC(=O)[C@H](CC1CC1)NC(=O)O[C@@H](c1ccccc1)C(F)(F)c1cccc(Cl)c1 [Compound A156] | 289
25 | CC(C)C[C@H](NC(=O)OC(c1ccccc1)C(F)(F)c1cccc(C(C)C)c1)C(=O)N[C@@H](C[C@@H]1CCNC1=O)C(=O)C(=O)NC1CC1 (stereo partly shown) [Compound A182] | 1
26 | CCNC(=O)C(=O)[C@H](C[C@@H]1CCNC1=O)NC(=O)[C@H](Cc1ccccc1)NC(=O)OC(C1CCCCC1)C(F)(F)c1cccc(Cl)c1 (stereo partly drawn) [Compound A255, 2-(3-Chlorophenyl)-1-cyclohexyl-2,2-difluoroethyl ((S)-1-(((S)-4-(ethylamino)-3,4-dioxo-1-((S)-2-oxopyrrolidin-3-yl)butan-2-yl)amino)-1-oxo-3-phenylpropan-2-yl)carbamate] | 208
27 | O=C(N[C@@H](CC1CC1)C(=O)N[C@@H](C[C@@H]1CCNC1=O)C(=O)C(=O)NC1CC1)O[C@@H](c1ccccc1)C(F)(F)c1cccc(Cl)c1 [Compound A176] | 2
28 | O=C[C@H](C[C@@H]1CCCNC1=O)NC(=O)[C@H](CC1CCCCC1)NC(=O)O[C@H](c1ccccc1)C(F)(F)c1cccc(Cl)c1 [Compound A155] | 611
29 | CCCC[C@H](NC(=O)CC(O)(Cc1cccc(Cl)c1)c1ccccc1)C(=O)N[C@@H](C[C@@H]1CCNC1=O)C(=O)C(=O)NCC (stereo partly drawn) [Compound A259, (2S)-2-(4-(3-chlorophenyl)-3-hydroxy-3-phenylbutanamido)-N—((S)-4-(ethylamino)-3,4-dioxo-1-((S)-2-oxopyrrolidin-3-yl)butan-2-yl)hexanamide] | 413
30 | CC(C)C[C@H](NC(=O)O[C@@H](c1ccccc1)C(F)(F)c1cccc(C(C)C)c1)C(=O)N[C@H](C=O)C[C@@H]1CCNC1=O [Compound A275, (S)-2,2-difluoro-2-(3-isopropylphenyl)-1-phenylethyl ((S)-4-methyl-1-oxo-1-(((S)-1-oxo-3-((S)-2-oxopyrrolidin-3-yl)propan-2-yl)amino)pentan-2-yl)carbamate] | 1
31 | O=C(N[C@@H](CC1CCCCC1)C(=O)N[C@@H](C[C@@H]1CCNC1=O)C(=O)C(=O)NC1CC1)OC(c1ccccc1)C(F)(F)c1cccc(F)c1 (stereo partly drawn) [Compound A74, 2,2-difluoro-2-(3-fluorophenyl)-1-phenylethyl ((S)-3-cyclohexyl-1-(((S)-4-(cyclopropylamino)-3,4-dioxo-1-((S)-2-oxopyrrolidin-3-yl)butan-2-yl)amino)-1-oxopropan-2-yl)carbamate] | 186
